Target: Bromodomain and WD repeat-containing protein 1 (Homo sapiens, UniProt Q9NSI6)
Experiment: Binding affinity to human partial length WDR9 bromodomain 2 (A1310 to E1430 residues) expressed in bacterial expression system by BROMOscan assay
Details: not given

SMILES	Kd [µM]
C/C=C/Cn1cc(-c2cc(OC)c(C(=O)N3CCOCC3)cc2OC)c2cc(C)[nH]c2c1=O	> 5

Target: Bromodomain-containing protein 2 (Homo sapiens, UniProt P25440)
Experiment: Binding affinity to human partial length BRD2 bromodomain 1 long isoform (K71 to N194 residues) expressed in bacterial expression system by BROMOscan assay
Details: not given

SMILES	Kd [µM]
C/C=C/Cn1cc(-c2cc(OC)c(C(=O)N3CCOCC3)cc2OC)c2cc(C)[nH]c2c1=O	> 10

System: U-937
Experiment: Cytotoxicity against human U-937 cells measured after 8 days
Format: functional, cell-based
Details: U-937, 192 h

SMILES	IC50 [µM]
C/C=C/Cn1cc(-c2cc(OC)c(C(=O)N3CCOCC3)cc2OC)c2cc(C)[nH]c2c1=O	2

System: not listed separately
Experiment: Cytotoxicity against human COLO 206F cells measured after 8 days
Format: functional, cell-based
Details: 192 h

SMILES	IC50 [µM]
C/C=C/Cn1cc(-c2cc(OC)c(C(=O)N3CCOCC3)cc2OC)c2cc(C)[nH]c2c1=O	2

System: HEL
Experiment: Cytotoxicity against human HEL cells measured after 8 days
Format: functional, cell-based
Details: 192 h

SMILES	IC50 [µM]
C/C=C/Cn1cc(-c2cc(OC)c(C(=O)N3CCOCC3)cc2OC)c2cc(C)[nH]c2c1=O	2

Target: T1, Transcription initiation factor TFIID subunit 1 (Homo sapiens, UniProt P21675)
T1 sequence (P21675 whole entry, the tested form may be a part): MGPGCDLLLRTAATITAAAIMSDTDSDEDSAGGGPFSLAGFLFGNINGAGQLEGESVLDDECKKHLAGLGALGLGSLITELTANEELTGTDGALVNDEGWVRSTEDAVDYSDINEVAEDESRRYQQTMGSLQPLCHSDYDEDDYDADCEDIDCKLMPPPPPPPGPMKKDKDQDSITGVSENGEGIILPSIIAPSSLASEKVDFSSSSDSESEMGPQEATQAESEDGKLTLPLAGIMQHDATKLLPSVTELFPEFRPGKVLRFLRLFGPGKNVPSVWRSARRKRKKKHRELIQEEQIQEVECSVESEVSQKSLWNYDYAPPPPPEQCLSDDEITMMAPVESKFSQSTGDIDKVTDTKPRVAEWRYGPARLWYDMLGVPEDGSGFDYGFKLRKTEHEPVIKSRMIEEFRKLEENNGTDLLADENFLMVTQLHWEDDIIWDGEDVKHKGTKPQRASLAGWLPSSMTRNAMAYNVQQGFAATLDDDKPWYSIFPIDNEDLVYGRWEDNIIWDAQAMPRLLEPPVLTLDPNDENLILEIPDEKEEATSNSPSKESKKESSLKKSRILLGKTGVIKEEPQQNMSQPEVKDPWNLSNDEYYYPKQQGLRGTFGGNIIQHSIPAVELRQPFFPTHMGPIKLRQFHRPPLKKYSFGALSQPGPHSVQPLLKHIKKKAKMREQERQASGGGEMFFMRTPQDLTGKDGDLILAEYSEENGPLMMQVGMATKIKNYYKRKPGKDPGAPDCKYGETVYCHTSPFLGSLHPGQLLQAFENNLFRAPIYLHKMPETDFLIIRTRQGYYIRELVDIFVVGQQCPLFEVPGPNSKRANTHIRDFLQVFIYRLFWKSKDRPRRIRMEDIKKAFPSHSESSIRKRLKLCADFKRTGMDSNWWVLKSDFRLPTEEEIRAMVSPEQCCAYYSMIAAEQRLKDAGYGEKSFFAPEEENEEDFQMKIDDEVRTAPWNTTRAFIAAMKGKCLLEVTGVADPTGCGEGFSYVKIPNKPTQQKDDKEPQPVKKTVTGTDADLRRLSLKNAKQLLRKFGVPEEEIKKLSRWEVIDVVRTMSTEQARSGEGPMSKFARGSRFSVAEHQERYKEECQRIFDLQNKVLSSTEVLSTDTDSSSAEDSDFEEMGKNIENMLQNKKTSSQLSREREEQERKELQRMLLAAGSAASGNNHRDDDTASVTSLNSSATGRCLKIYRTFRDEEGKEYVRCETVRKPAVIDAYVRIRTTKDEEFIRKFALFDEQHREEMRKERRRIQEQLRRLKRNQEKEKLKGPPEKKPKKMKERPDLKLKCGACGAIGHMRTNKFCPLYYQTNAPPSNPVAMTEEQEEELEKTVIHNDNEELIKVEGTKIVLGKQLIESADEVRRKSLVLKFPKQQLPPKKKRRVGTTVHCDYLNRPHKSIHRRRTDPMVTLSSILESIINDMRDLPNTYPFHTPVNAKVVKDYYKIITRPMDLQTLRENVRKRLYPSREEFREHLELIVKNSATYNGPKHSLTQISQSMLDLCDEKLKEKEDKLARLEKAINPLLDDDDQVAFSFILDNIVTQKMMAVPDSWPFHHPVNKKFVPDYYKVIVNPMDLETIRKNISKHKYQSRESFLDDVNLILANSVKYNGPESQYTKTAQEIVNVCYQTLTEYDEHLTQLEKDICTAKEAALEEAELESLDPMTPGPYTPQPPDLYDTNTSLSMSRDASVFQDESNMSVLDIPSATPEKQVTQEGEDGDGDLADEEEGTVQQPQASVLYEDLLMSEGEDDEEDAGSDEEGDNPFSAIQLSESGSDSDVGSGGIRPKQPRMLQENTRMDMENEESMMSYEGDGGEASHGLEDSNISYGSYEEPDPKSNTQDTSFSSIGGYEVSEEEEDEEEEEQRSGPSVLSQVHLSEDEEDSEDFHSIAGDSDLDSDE
Experiment: Binding affinity to human partial length TAF1 bromodomain 2 (D1521 to D1656 residues) expressed in bacterial expression system by BROMOscan assay
Details: not given

SMILES	Kd [µM]
C/C=C/Cn1cc(-c2cc(OC)c(C(=O)N3CCOCC3)cc2OC)c2cc(C)[nH]c2c1=O	> 10

System: LNCaP
Experiment: Cytotoxicity against human LNCaP clone FGC cells measured after 8 days
Format: functional, cell-based
Details: 192 h

SMILES	IC50 [µM]
C/C=C/Cn1cc(-c2cc(OC)c(C(=O)N3CCOCC3)cc2OC)c2cc(C)[nH]c2c1=O	2

System: not listed separately
Experiment: Cytotoxicity against human KPL-4 cells measured after 8 days
Format: functional, cell-based
Details: KPL4, 192 h

SMILES	IC50 [µM]
C/C=C/Cn1cc(-c2cc(OC)c(C(=O)N3CCOCC3)cc2OC)c2cc(C)[nH]c2c1=O	2

Target: 5-hydroxytryptamine receptor 1B (Rattus norvegicus) (UniProt P28564)
Experiment: Displacement of [125I]-CYP from rat brain 5-HT1B receptor at 10 uM after 120 mins by scintillation counting analysis relative to control
Details: not given

SMILES	Activity [%]
C/C=C/Cn1cc(-c2cc(OC)c(C(=O)N3CCOCC3)cc2OC)c2cc(C)[nH]c2c1=O	-10

Target: Kappa-type opioid receptor (Homo sapiens) (UniProt P41145)
Experiment: Displacement of [3H]U69593 from human kappa receptor at 10 uM after 60 mins by scintillation counting analysis relative to control
Details: not given

SMILES	Activity [%]
C/C=C/Cn1cc(-c2cc(OC)c(C(=O)N3CCOCC3)cc2OC)c2cc(C)[nH]c2c1=O	8

System: not listed separately
Experiment: Cytotoxicity against human HT115 cells measured after 8 days
Format: functional, cell-based
Details: HT115, 192 h

SMILES	IC50 [µM]
C/C=C/Cn1cc(-c2cc(OC)c(C(=O)N3CCOCC3)cc2OC)c2cc(C)[nH]c2c1=O	2

System: not listed separately
Experiment: Cytotoxicity against human OUMS-23 cells measured after 8 days
Format: functional, cell-based
Details: OUMS-23, 192 h

SMILES	IC50 [µM]
C/C=C/Cn1cc(-c2cc(OC)c(C(=O)N3CCOCC3)cc2OC)c2cc(C)[nH]c2c1=O	2

System: OCI-AML-5
Experiment: Cytotoxicity against human OCI-AML5 cells measured after 8 days
Format: functional, cell-based
Details: OCI-AML-5, 192 h

SMILES	IC50 [µM]
C/C=C/Cn1cc(-c2cc(OC)c(C(=O)N3CCOCC3)cc2OC)c2cc(C)[nH]c2c1=O	2

Target: Bromodomain adjacent to zinc finger domain protein 2A (Homo sapiens, UniProt Q9UIF9)
Experiment: Binding affinity to human partial length BAZ2A (M1792 to L1905 residues) expressed in bacterial expression system by BROMOscan assay
Details: not given

SMILES	Kd [µM]
C/C=C/Cn1cc(-c2cc(OC)c(C(=O)N3CCOCC3)cc2OC)c2cc(C)[nH]c2c1=O	> 10

Target: SWI/SNF-related matrix-associated actin-dependent regulator of chromatin subfamily A member 4 (Homo sapiens, UniProt P51532)
Experiment: Binding affinity to human partial length SMARCA4 (A1448 to S1575 residues) expressed in bacterial expression system by BROMOscan assay
Details: not given

SMILES	Kd [µM]
C/C=C/Cn1cc(-c2cc(OC)c(C(=O)N3CCOCC3)cc2OC)c2cc(C)[nH]c2c1=O	> 10

System: A-375
Experiment: Cytotoxicity against human A-375 cells measured after 8 days
Format: functional, cell-based
Details: A-375, 192 h

SMILES	IC50 [µM]
C/C=C/Cn1cc(-c2cc(OC)c(C(=O)N3CCOCC3)cc2OC)c2cc(C)[nH]c2c1=O	2

Target: T2, Bromodomain-containing protein 8 (Homo sapiens, UniProt Q9H0E9)
T2 sequence (Q9H0E9 whole entry): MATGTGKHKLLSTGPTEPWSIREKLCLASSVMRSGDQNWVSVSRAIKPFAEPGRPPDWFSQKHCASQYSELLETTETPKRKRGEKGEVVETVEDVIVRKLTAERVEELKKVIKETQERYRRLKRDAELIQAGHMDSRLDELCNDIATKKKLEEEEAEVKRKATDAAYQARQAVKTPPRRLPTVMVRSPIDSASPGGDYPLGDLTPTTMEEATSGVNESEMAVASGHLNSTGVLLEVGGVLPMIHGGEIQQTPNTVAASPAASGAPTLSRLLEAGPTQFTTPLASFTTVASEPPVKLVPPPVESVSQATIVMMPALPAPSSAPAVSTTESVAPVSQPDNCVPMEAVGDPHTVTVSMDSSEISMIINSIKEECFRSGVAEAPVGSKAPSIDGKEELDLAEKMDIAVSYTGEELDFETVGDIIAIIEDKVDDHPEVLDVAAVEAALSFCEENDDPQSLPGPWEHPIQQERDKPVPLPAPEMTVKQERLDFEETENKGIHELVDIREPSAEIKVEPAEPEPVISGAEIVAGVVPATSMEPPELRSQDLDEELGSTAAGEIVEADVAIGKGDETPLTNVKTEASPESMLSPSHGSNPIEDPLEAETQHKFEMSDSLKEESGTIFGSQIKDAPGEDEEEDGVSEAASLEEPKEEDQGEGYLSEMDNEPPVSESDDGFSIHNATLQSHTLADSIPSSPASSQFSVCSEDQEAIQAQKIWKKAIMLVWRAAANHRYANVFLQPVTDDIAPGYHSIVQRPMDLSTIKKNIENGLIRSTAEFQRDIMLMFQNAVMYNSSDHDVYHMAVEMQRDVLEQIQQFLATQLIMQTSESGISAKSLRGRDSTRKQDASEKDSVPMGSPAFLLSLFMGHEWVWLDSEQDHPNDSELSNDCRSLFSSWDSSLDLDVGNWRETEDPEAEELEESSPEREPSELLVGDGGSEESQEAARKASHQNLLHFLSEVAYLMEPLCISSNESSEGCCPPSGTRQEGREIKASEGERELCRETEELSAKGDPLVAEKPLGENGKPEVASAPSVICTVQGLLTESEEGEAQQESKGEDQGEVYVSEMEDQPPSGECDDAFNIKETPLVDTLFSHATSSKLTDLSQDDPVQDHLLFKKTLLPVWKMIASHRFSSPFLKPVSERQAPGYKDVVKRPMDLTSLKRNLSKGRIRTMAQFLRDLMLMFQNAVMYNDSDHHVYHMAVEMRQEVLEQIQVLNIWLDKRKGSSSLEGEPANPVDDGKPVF
Experiment: Binding affinity to BRD8 bromodomain 2 (unknown origin) by BROMOscan assay
Details: not given

SMILES	Kd [µM]
C/C=C/Cn1cc(-c2cc(OC)c(C(=O)N3CCOCC3)cc2OC)c2cc(C)[nH]c2c1=O	> 10

System: MKN-45
Experiment: Cytotoxicity against human MKN-45 cells measured after 8 days
Format: functional, cell-based
Details: MKN-45, 192 h

SMILES	IC50 [µM]
C/C=C/Cn1cc(-c2cc(OC)c(C(=O)N3CCOCC3)cc2OC)c2cc(C)[nH]c2c1=O	2

System: not listed separately
Experiment: Cytotoxicity against human LS174T-HM7 cells measured after 8 days
Format: functional, cell-based
Details: LS174T-HM7, 192 h

SMILES	IC50 [µM]
C/C=C/Cn1cc(-c2cc(OC)c(C(=O)N3CCOCC3)cc2OC)c2cc(C)[nH]c2c1=O	2

Target: T2, Bromodomain-containing protein 8
Experiment: Binding affinity to BRD8 bromodomain 1 (unknown origin) by BROMOscan assay
Details: not given

SMILES	Kd [µM]
C/C=C/Cn1cc(-c2cc(OC)c(C(=O)N3CCOCC3)cc2OC)c2cc(C)[nH]c2c1=O	> 10

System: SKM-1
Experiment: Cytotoxicity against human SKM-1 cells measured after 8 days
Format: functional, cell-based
Details: SKM-1, 192 h

SMILES	IC50 [µM]
C/C=C/Cn1cc(-c2cc(OC)c(C(=O)N3CCOCC3)cc2OC)c2cc(C)[nH]c2c1=O	2

Target: Adenosine receptor A2a (Homo sapiens) (UniProt P29274)
Experiment: Displacement of [3H]-CGS 21680 from human recombinant adenosine A2A receptor at 10 uM after 120 mins by scintillation counting analysis relative to control
Details: not given

SMILES	Activity [%]
C/C=C/Cn1cc(-c2cc(OC)c(C(=O)N3CCOCC3)cc2OC)c2cc(C)[nH]c2c1=O	12

Target: T3, Serine/threonine-protein kinase Chk1 (Homo sapiens) (UniProt O14757)
T3 sequence (whole entry): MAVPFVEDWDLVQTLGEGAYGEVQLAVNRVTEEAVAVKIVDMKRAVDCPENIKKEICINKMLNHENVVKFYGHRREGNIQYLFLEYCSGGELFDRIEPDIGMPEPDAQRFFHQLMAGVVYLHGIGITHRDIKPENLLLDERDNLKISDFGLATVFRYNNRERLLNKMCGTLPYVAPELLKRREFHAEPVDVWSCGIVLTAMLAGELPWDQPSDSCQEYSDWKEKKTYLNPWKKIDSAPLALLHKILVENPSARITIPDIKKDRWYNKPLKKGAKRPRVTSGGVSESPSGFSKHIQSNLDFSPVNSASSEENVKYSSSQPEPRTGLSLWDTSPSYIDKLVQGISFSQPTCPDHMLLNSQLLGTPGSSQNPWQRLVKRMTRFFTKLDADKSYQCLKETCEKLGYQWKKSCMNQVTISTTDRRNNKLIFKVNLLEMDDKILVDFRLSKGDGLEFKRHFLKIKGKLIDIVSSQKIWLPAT
Experiment: Inhibition of CHK1 (unknown origin) at 1 uM relative to control
Details: not given

SMILES	inhibition [%]
C/C=C/Cn1cc(-c2cc(OC)c(C(=O)N3CCOCC3)cc2OC)c2cc(C)[nH]c2c1=O	-7.5

System: BJAB
Experiment: Cytotoxicity against human BJAB cells measured after 8 days
Format: functional, cell-based
Details: 192 h

SMILES	IC50 [µM]
C/C=C/Cn1cc(-c2cc(OC)c(C(=O)N3CCOCC3)cc2OC)c2cc(C)[nH]c2c1=O	2

Target: Histone acetyltransferase KAT2B (Homo sapiens, UniProt Q92831)
Experiment: Binding affinity to human partial length PCAF (G715 to D831 residues) expressed in bacterial expression system by BROMOscan assay
Details: not given

SMILES	Kd [µM]
C/C=C/Cn1cc(-c2cc(OC)c(C(=O)N3CCOCC3)cc2OC)c2cc(C)[nH]c2c1=O	> 10

Target: T1, Transcription initiation factor TFIID subunit 1
Experiment: Displacement of biotinylated small-molecule ligand from recombinant His-tagged TAF1 bromodomain 2 (unknown origin) measured after 10 mins by TR-FRET assay
Details: not given

SMILES	IC50 [µM]
C/C=C/Cn1cc(-c2cc(OC)c(C(=O)N3CCOCC3)cc2OC)c2cc(C)[nH]c2c1=O	> 20

System: not listed separately
Experiment: Cytotoxicity against human NCI-H2731 cells measured after 8 days
Format: functional, cell-based
Details: NCI-H2731, 192 h

SMILES	IC50 [µM]
C/C=C/Cn1cc(-c2cc(OC)c(C(=O)N3CCOCC3)cc2OC)c2cc(C)[nH]c2c1=O	2

Target: Sodium-dependent noradrenaline transporter (Homo sapiens) (UniProt P23975)
Experiment: Displacement of [3H]nisoxetine from recombinant human norepinephrine transporter at 10 uM after 120 mins by scintillation counting analysis relative to control
Details: not given

SMILES	Activity [%]
C/C=C/Cn1cc(-c2cc(OC)c(C(=O)N3CCOCC3)cc2OC)c2cc(C)[nH]c2c1=O	0

System: HDQ-P1
Experiment: Cytotoxicity against human HDQ-P1 cells measured after 8 days
Format: functional, cell-based
Details: HDQ-P1, 192 h

SMILES	IC50 [µM]
C/C=C/Cn1cc(-c2cc(OC)c(C(=O)N3CCOCC3)cc2OC)c2cc(C)[nH]c2c1=O	2

Target: Protein polybromo-1 (Homo sapiens, UniProt Q86U86)
Sequence (Q86U86 whole entry, the tested form may be a part): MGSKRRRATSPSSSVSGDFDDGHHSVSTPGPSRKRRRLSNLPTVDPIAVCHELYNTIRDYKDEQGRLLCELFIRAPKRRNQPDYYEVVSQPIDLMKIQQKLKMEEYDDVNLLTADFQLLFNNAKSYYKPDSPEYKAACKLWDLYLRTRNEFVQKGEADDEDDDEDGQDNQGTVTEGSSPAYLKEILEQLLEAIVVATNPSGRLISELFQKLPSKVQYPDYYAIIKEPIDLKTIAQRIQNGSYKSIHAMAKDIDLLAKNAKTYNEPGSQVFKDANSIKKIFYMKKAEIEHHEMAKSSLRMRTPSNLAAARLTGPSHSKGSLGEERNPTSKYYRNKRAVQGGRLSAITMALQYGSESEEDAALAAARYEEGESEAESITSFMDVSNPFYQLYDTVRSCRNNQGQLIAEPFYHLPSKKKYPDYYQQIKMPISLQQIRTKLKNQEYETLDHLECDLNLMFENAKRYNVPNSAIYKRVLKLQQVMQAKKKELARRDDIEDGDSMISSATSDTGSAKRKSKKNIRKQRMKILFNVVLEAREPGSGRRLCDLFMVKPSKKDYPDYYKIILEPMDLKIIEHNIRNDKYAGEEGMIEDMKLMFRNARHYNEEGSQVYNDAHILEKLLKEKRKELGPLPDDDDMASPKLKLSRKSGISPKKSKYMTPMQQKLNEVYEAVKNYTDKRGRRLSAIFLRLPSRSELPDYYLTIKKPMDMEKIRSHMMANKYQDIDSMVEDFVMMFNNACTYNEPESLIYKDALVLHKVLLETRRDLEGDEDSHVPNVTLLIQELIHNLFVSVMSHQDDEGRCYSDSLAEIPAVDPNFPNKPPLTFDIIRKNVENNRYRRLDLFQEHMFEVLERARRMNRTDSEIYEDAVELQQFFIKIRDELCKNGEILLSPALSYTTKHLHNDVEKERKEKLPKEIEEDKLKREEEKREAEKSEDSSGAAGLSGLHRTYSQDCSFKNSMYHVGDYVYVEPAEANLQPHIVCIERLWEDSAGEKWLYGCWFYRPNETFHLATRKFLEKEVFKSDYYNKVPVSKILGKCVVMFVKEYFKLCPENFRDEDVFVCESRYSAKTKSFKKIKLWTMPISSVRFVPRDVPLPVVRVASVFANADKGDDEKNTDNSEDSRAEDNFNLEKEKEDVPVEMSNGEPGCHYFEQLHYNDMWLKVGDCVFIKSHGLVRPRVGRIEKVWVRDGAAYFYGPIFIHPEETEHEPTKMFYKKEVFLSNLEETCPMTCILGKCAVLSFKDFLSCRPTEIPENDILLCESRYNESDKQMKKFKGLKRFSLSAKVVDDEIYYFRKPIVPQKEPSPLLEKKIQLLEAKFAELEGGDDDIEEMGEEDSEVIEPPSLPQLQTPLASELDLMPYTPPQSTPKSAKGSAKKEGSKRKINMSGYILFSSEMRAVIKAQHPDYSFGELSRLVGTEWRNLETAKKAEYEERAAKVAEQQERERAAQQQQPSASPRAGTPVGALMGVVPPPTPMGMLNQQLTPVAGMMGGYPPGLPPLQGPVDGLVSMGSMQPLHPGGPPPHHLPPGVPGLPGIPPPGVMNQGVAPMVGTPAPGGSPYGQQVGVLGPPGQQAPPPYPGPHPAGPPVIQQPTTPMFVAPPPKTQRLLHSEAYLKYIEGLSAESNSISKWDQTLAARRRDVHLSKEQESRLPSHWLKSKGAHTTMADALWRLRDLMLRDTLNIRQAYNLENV
Experiment: Binding affinity to human partial length PBRM1 bromodomain 5 (S645 to D766 residues) expressed in bacterial expression system by BROMOscan assay
Details: not given

SMILES	Kd [µM]
C/C=C/Cn1cc(-c2cc(OC)c(C(=O)N3CCOCC3)cc2OC)c2cc(C)[nH]c2c1=O	> 10

System: UMC-11
Experiment: Cytotoxicity against human UMC-11 cells measured after 8 days
Format: functional, cell-based
Details: UMC-11, 192 h

SMILES	IC50 [µM]
C/C=C/Cn1cc(-c2cc(OC)c(C(=O)N3CCOCC3)cc2OC)c2cc(C)[nH]c2c1=O	2

Target: Mu-type opioid receptor (Homo sapiens) (UniProt P35372)
Experiment: Displacement of [3H]DAMGO from human recombinant mu receptor at 10 uM after 120 mins by scintillation counting analysis relative to control
Details: not given

SMILES	Activity [%]
C/C=C/Cn1cc(-c2cc(OC)c(C(=O)N3CCOCC3)cc2OC)c2cc(C)[nH]c2c1=O	9

Target: Bromodomain-containing protein 3 (Homo sapiens, UniProt Q15059)
Experiment: Binding affinity to BRD3 bromodomain 1/2 (unknown origin) by BROMOscan assay
Details: not given

SMILES	Kd [µM]
C/C=C/Cn1cc(-c2cc(OC)c(C(=O)N3CCOCC3)cc2OC)c2cc(C)[nH]c2c1=O	> 10

System: CA46
Experiment: Cytotoxicity against human CA46 cells measured after 8 days
Format: functional, cell-based
Details: CA46, 192 h

SMILES	IC50 [µM]
C/C=C/Cn1cc(-c2cc(OC)c(C(=O)N3CCOCC3)cc2OC)c2cc(C)[nH]c2c1=O	2

Target: Dual specificity mitogen-activated protein kinase kinase 1 (Homo sapiens) (UniProt Q02750)
Experiment: Inhibition of MEK1 (unknown origin) at 1 uM relative to control
Details: not given

SMILES	inhibition [%]
C/C=C/Cn1cc(-c2cc(OC)c(C(=O)N3CCOCC3)cc2OC)c2cc(C)[nH]c2c1=O	4

System: LCLC-97TM1
Experiment: Cytotoxicity against human LCLC-97TM1 cells measured after 8 days
Format: functional, cell-based
Details: LCLC-97TM1, 192 h

SMILES	IC50 [µM]
C/C=C/Cn1cc(-c2cc(OC)c(C(=O)N3CCOCC3)cc2OC)c2cc(C)[nH]c2c1=O	2

System: NCI-H650
Experiment: Cytotoxicity against human NCI-H650 cells measured after 8 days
Format: functional, cell-based
Details: NCI-H650, 192 h

SMILES	IC50 [µM]
C/C=C/Cn1cc(-c2cc(OC)c(C(=O)N3CCOCC3)cc2OC)c2cc(C)[nH]c2c1=O	2
